The series in a line: physchem. The conditions noted are these: octan-1-ol/water, pH 7.4, LogD7.4.
As to `O=C(NCC12CC3CC(CC(C3)C1)C2)c1ccccc1`, the log distribution coefficient (logD) was found to be 4.21.

On to `CC(C)C(NC(=O)Cn1c(-c2ccccc2)ccc(NC(=O)Cc2ccc(C(=O)O)cc2)c1=O)C(=O)C(F)(F)F` (stereo not drawn), for which the logD came out at 0.35.

Consider `CC(=N)NCc1ccccc1`, for which the logD is -0.28.

`O=c1[nH]n(Cc2ccncc2)c(=O)c2c(=O)c3ccc(Cl)cc3[nH]c12` gave a logD of -0.16.

`O=S(=O)(NCC(c1ccccc1)N1CCCCCC1)c1ccc(C(F)(F)F)cc1` (stereo not drawn): the logD is 4.29.

In turn, `NC(=O)c1cccc(OC2CCN(CC3CC3)CC2)c1` returned a log distribution coefficient (logD) of 0.49.

`CNS(=O)(=O)CCc1ccc2[nH]cc(C3CCN(C)CC3)c2c1` registered a logD of 0.48.

The molecule `Cc1nnc(N)s1` returned a log distribution coefficient (logD) of -0.4.

For the molecule `Fc1ccc(C2CCN(C(=S)COCc3ccncc3)CC2)c(Cl)c1`, the logD is 4.23.

`Cc1nc(C(=O)N2CCCC3(CCN(Cc4ccccc4)CC3)C2)cs1`: the pH-dependent lipophilicity (logD) was found to be 0.24.

As to `O=S(=O)(Nc1ccc2[nH]c(-c3ccc(Br)o3)nc2c1)c1ccccc1`, the pH-dependent lipophilicity (logD) was 4.38.

As to `CCN(c1ccccc1)c1cc(NC)[n+](C)c(C)n1`, the logD was -0.91.

Regarding `C=CCc1cc(NC(C)=O)ccc1OCCCNC(C)C`, the logD is -0.01.

The molecule `Cc1c(CCC(=O)O)c(=O)oc2cc(O)ccc12` registered a log distribution coefficient (logD) of -0.7.

`CC(=O)Nc1nc(N)n(-c2ccccc2)n1` gave a log distribution coefficient (logD) of -0.2.

For `O=C(Oc1ccccc1O)c1cccc2ccccc12`, the pH-dependent lipophilicity (logD) amounted to 4.4.

Turning to `CN1CCN(CC(=O)Nc2c(C#N)cnn2-c2ccccc2)CC1`, the logD is 0.

In the case of `N=C(N)Nc1ccc(C(=O)Oc2ccccc2)cc1`, the logD is -0.21.

For `Nc1nc(-c2ccccc2)nc2c1nc(O)n2Cc1ccccc1`, the logD turned out to be 4.16.

`CC(c1ccccc1)C(Cc1nc2ccccc2[nH]1)c1nc2ccccc2[nH]1` (stereo not drawn) returned a pH-dependent lipophilicity (logD) of 4.48.

Take `CC(=O)Nc1ccc(S(=O)(=O)Nc2ccccn2)cc1`: the logD was 0.24.

As to `CC(C)(C)c1cc(O)n2nc(N)nc2n1`, the pH-dependent lipophilicity (logD) is -0.2.

For the molecule `Cc1ccc(OCC(=O)O)c(-n2nc3ccccc3n2)c1`, the logD is -0.84.

Regarding `CCN(CC)CC(=O)Nc1c(C#N)cnn1-c1ccccc1`, the logD was found to be 0.4.

Take `O=C(O)c1ccc(-c2nnn(Cc3ccccc3F)n2)cc1`: the pH-dependent lipophilicity (logD) turned out to be 0.3.

On to `O=C(Nc1ccccc1)Nc1ccccc1C(=O)O`, for which the logD was -0.12.

In the case of `Nc1ccnc(-c2cccnc2)n1`, the logD worked out at 0.44.

As for `CC1CN(Cc2cc(Cl)ccc2OCC(=O)O)CCN1S(=O)(=O)c1ccccc1` (stereo not drawn), the logD was 0.31.

Take `Oc1cc(-c2ccccc2)nc2ncnn12`: the logD is -0.21.

`Cc1cc(NC(=O)Nc2ccc(Cl)cc2)n(-c2ccccc2)n1` returned a logD of 4.15.

Regarding `Cc1ccc(CO)cc1N(C)c1ccnc(Nc2cc(N3CCCCC3)cc(N3CCOCC3)c2)n1`, the pH-dependent lipophilicity (logD) stood at 4.2.

`COC[C@H](C)Oc1cc(Oc2ccc(S(C)(=O)=O)cc2)cc(C(=O)Nc2ccc(C(=O)O)cn2)c1`: the logD is -0.41.

For the molecule `COc1ccc(-c2cc(C(F)(F)F)ccc2OCC(=O)O)cc1`, the logD turned out to be 0.29.

The molecule `CCS(=O)(=O)c1ccc(-c2cc(C(F)(F)F)ccc2O[C@H](C)C(=O)O)c(C)c1` gave a logD of -0.4.

As for `COc1cc(N2CCN(C(C)=O)CC2)ccc1Nc1ncc(Cl)c(-c2cnc3cc(Cl)ccn23)n1`, the logD stood at 4.2.

Take `CC(=O)Nc1cccc(Nc2ncnc(N3CCC(OCc4ccc(OC(F)(F)F)cc4)CC3)n2)c1C`: the logD was determined as 4.4.

`CCC(c1nc2ccsc2c(=O)n1Cc1cccnc1)N(CCCN)C(=O)c1ccc(C)cc1` (stereo not drawn) registered a pH-dependent lipophilicity (logD) of 0.01.

`CCC(c1nc2ccsc2c(=O)n1Cc1cscn1)N(CCCN)C(=O)c1ccc(C)cc1` (stereo not drawn): the logD was 0.02.

Molecule `CCC(c1nc2ncccc2c(=O)n1Cc1ccccc1)N(CCCN)C(=O)c1ccc(C)cc1` (stereo not drawn) yielded a logD of -0.04.

As for `CCC(NC(=O)c1ccc(C)cc1)c1nc2ccsc2c(=O)n1Cc1ccccc1` (stereo not drawn), the pH-dependent lipophilicity (logD) came to 4.14.

Take `CN1CCN(CCCOc2ccc(-c3cc(-c4ccc(F)cc4)no3)cc2)CC1`: the logD was determined as 3.81.

In turn, `COc1cc2ncnc(Nc3cc(NC(=O)c4cccc(N(C)C)c4)ccc3Cl)c2cc1OC` returned a logD of 4.26.

For `Cc1c(CCC(=O)O)c(=O)oc2c(C)c(O)ccc12`, the logD is -0.3.

Turning to `CNC(=O)c1cnn(-c2ccccc2)c1NS(=O)(=O)c1ccc(C)cc1`, the logD is -0.54.

Molecule `COc1ccc2c(C)nc(=O)n(CCN3CCC(NCc4cc5c(cn4)OCCO5)CC3)c2c1` registered a logD of 0.29.

The molecule `COc1ncc2ncc(=O)n(CCN3CCC(NCc4cc5c(cn4)OCCO5)CC3)c2n1` returned a logD of -0.14.

`CCS(=O)(=O)c1ccc(Oc2c(C)n(CC(=O)O)c3ccc(C(F)(F)F)cc23)cc1` displayed a logD of 0.29.

The molecule `Cc1ccc2c(n1)c(Sc1ccc(Cl)cc1)c(C)n2CC(=O)O` registered a logD of 0.35.

The molecule `C[C@H]1O[C@@H](n2cnc3c(N)nc(OC4CCOC4)nc32)[C@H](O)[C@@H]1O` (stereo partly drawn) showed a pH-dependent lipophilicity (logD) of -0.06.

Take `COCCNCc1ccc(CCNC[C@H](O)c2ccc(O)c3[nH]c(=O)sc23)cc1`: the logD was -0.54.

On to `CN[C@@H](C)C(=O)N[C@H](C(=O)N[C@H]1CCCN(CCc2ccccn2)C1)C(C)(C)C`, for which the logD was -0.55.

The molecule `N=C(N)NC(=O)c1nc(Cl)c(NCc2ccncc2)nc1N` displayed a logD of -0.51.

As to `N=C(N)NC(=O)c1nc(Cl)c(NCc2ccccn2)nc1N`, the log distribution coefficient (logD) is -0.56.

In turn, `COc1ccc(-c2nc3c(NCCCNC(=O)c4ccccc4)c(Br)cnc3[nH]2)cc1` had a logD of 0.25.

For the molecule `O=C(NS(=O)(=O)c1ccc(NCCSc2ccccc2)c([N+](=O)[O-])c1)c1ccc(N2CCNCC2)cc1`, the log distribution coefficient (logD) was -0.04.

Molecule `O=C(N[C@@H](Cc1ccc(OCCNc2ccccn2)cc1)C(=O)O)c1c(Cl)cccc1Cl` yielded a logD of -0.48.

`O=C(N[C@@H](Cc1cccc(OCCCNc2ccccn2)c1)C(=O)O)c1c(Cl)cccc1Cl` had a logD of 0.16.

As to `O=C(Cc1ccc2c(n1)NCCC2)Nc1ccc(C[C@H](NC(=O)c2c(Cl)cccc2Cl)C(=O)O)cc1`, the logD was -0.63.

As to `CC(=O)Nc1ccc2c(c1)c(-c1cc(NC3CC3)n3ncc(C#N)c3n1)cn2CCC(=O)O`, the log distribution coefficient (logD) was -0.87.

In turn, `COc1ncc(-c2cccc3c2C[C@H](NC(=O)c2ccc(OCC(F)(F)F)nc2)CO3)cn1` showed a pH-dependent lipophilicity (logD) of 4.3.

Turning to `Cc1oc(C#N)cc1-c1c2c(=O)n(C)c(=O)n(CC3CC3)c2nn1Cc1ccnc2ccc(Cl)cc12`, the logD came out at 4.26.

`Cn1cncc1-c1c2c(=O)n(CC3CC3)c(=O)n(CC3CC3)c2nn1Cc1ccnc2ccc(Cl)cc12` returned a logD of 4.33.

In the case of `C=CCn1c(=O)c2c(-c3cc(C#N)cn3C)n(Cc3ccnc4ccc(Cl)cc34)nc2n(CC2CC2)c1=O`, the logD is 4.27.

In the case of `COc1c(N2CCO[C@@H](CN(C)C)C2)c(F)cc2c(=O)c(C(=O)O)cn(C3CC3)c12`, the logD was -0.62.

With `NC(=O)C1CCN(CC(=O)Nc2ccc3c(c2)OCO3)CC1`, the logD was found to be 0.4.

In the case of `CC#Cc1ccnc(-c2cccc([C@@]3(c4cc(C)c(=O)n(CC)c4)N=C(N)c4c(F)cccc43)c2)c1`, the pH-dependent lipophilicity (logD) is 4.4.

Take `CC(C)N(C(=O)C(c1cccnc1)C(CNC(=O)NCc1ccccc1F)c1ccccc1)C(C)C` (stereo not drawn): the logD worked out at 4.2.

The molecule `Nc1nnc(CCSCCc2nnc(N)s2)s1` yielded a logD of -0.1.

For `CC(C)c1ccccc1Nc1nnc(SCc2cccs2)[nH]1`, the pH-dependent lipophilicity (logD) was 4.21.

In turn, `OCC[C@]1(c2cc3ccccc3o2)CCCNC1` came in with a logD of 0.12.

With `OCC[C@@]1(c2cc3ccccc3o2)CCCNC1`, the log distribution coefficient (logD) turned out to be 0.06.

Molecule `Nc1nc2cc3c(cc2s1)CCN(Cc1cnc[nH]1)CC3` registered a logD of -0.12.

`Cc1cn([C@H]2CCCN(S(=O)(=O)c3ccc(C(=O)O)c(Oc4ccc(Cl)c(Cl)c4)c3)C2)c(=O)[nH]c1=O` came in with a logD of -0.87.

With `CC(C)C[C@H](CO)Nc1nc(SCc2ccccc2F)nc2nc(N)sc12`, the log distribution coefficient (logD) turned out to be 4.5.

Take `CC(C)(C)c1ccc(-c2n[nH]c(NC(=O)c3ccccc3Cl)c2Br)cc1`: the logD came to 4.3.

As to `O=S(=O)(Nc1nccs1)c1ccc(O)cc1`, the logD stood at 0.36.

With `NCc1nc2ccccc2[nH]1`, the log distribution coefficient (logD) was found to be 0.4.

With `Cc1cccc(Br)c1C(=O)N[C@@H](Cc1ccc(NC(=O)c2c(Cl)cccc2Cl)cc1)C(=O)O`, the pH-dependent lipophilicity (logD) is -0.13.

`COc1ccccc1C(=O)NCC12CC3CC(CC(C3)C1)C2` had a logD of 4.43.

For `COc1ccc(Cl)c(C(=O)NCC23CC4CC(CC(C4)C2)C3)c1`, the logD worked out at 4.39.

`N=C(N)NCCC[C@H](NC(=O)COCC(c1ccccc1)c1ccccc1)C(=O)O` gave a log distribution coefficient (logD) of 0.18.

`O=C(N[C@@H](Cc1ccc(N2CCN(c3ccccc3)CC2)cc1)C(=O)O)c1c(Cl)cccc1Cl` had a logD of 0.08.

Molecule `O=C(NCC12CC3CC(CC(C3)C1)C2)c1ccccc1Br` returned a log distribution coefficient (logD) of 4.15.

With `N=C(N)Nc1ccc(Cl)c(Cl)c1`, the logD was -0.31.

Turning to `FC(F)(F)c1cc(COCC(c2cccc(Cl)c2)N2CCNCC2)cc(C(F)(F)F)c1` (stereo not drawn), the logD came out at 4.2.

`O=C(NCC12CC3CC(CC(C3)C1)C2)c1cccc(Cl)c1Cl`: the logD came to 4.37.

For the molecule `CC[C@H](NC(=O)c1c(CN(C)C)c(-c2ccccc2)nc2ccccc12)c1ccccc1`, the log distribution coefficient (logD) was found to be 4.18.

In the case of `Cc1oc(S(C)(=O)=O)cc1-c1c2c(=O)n(C)c(=O)n(CC3CC3)c2nn1Cc1cn(C)c2ccc(Cl)cc12`, the logD stood at 4.48.

`O=C(COc1ccc(OCCNCC(O)COc2ccccc2)cc1)NCCO` (stereo not drawn) had a log distribution coefficient (logD) of 0.42.

Turning to `c1ccc(OCC2CNCCO2)cc1` (stereo not drawn), the logD turned out to be 0.2.

The molecule `Fc1ccc(CNc2ncc(Br)c(Nc3cc(C4CC4)[nH]n3)n2)cc1` gave a pH-dependent lipophilicity (logD) of 4.28.

On to `COc1cccc(NC(=O)c2cccc(Cc3c(C)nn(CCO)c3-c3ccccc3)c2)c1`, for which the log distribution coefficient (logD) came to 4.29.

`NNc1nc2ccccc2[nH]c1=O` gave a logD of 0.44.

The molecule `Cc1nc(NC(=N)N)nc2ccccc12` returned a log distribution coefficient (logD) of -0.49.

In turn, `Cc1cc(C)c(C(=O)N[C@@H](Cc2ccc(OCCCNc3ccccn3)cc2)C(=O)O)c(C)c1` showed a logD of 0.49.

In turn, `O=c1ccnc2ccccn12` had a logD of 0.2.

With `Nc1nc(N)c2nc(CO)cnc2n1`, the logD is -0.45.

Molecule `COc1cccc(OC)c1-c1ccc(C[C@H](NC(=O)c2c(Cl)cccc2Cl)C(=O)O)cc1` had a log distribution coefficient (logD) of -0.27.

Usually logD stands for the decadic logarithm of the distribution of all forms, ionised or not, between an organic phase and buffer at a given pH. A low value points to lower lipophilicity.
